In patent US20110112151A1, “COMPOUND CAPABLE OF INHIBITING 11-BETA HYDROXYSTERIOD DEHYDROGENASE” (priority 2008, published 2011):

Target: T1, 11β-HSD1 (Homo sapiens, UniProt P28845)
T1 construct: expressed in transfected cells; host or cells: HEK 293 (stably transfected, HEK 293/HSD11B1)
Assay: 11β-HSD1 HEK assay (cell based assay, SPA)
Details: HEK293; at 1 μM; whole HEK 293 cells stably transfected with the HSD11B1 gene, 3H-cortisone substrate; read-out: Activity (inhibition of 11β-HSD1)
Protocol: 11β-HSD1 HEK Assay Protocol (Cell Based Assay)
11β-HSD1 activity is measured in whole HEK 293 cells stably transfected with the HSD11B1 gene. Cells are incubated in 96-well microplates in the presence of tritiated substrate. Enzyme activity is determined by measuring the amount of tritated product by scintillation proximity assay (SPA). Assay plates contain internal high and low controls to allow calculation of percentage inhibition.
1. […] 2. When the cells are 80% confluent the medium is removed from each well. 100 μl fresh, serum-free, medium containing ^3H-cortisone and test compound in 1% DMSO is added to each well*. Control wells are also dispensed. […] 3. The plate is incubated at 37° C. for the required time period. 4. 50 μl of media is removed from each well and transferred to a microplate containing 100 μl of a pre-incubated mixture of anti-cortisol antibody and SPA bead. The mixture is incubated with gentle shaking until equilibrium is reached, before transferring to a scintillation counter to establish the enzyme activity in each sample.
10 μl of compound is dispensed into each well of a 96-well microplate in 10% DMSO at 100 μM concentration. 90 μl media containing ^3H-cortisone is added to each well. The compound/media/substrate mixture is then transferred to the assay plate containing the cells. […]

T1 sequence (P28845 whole entry): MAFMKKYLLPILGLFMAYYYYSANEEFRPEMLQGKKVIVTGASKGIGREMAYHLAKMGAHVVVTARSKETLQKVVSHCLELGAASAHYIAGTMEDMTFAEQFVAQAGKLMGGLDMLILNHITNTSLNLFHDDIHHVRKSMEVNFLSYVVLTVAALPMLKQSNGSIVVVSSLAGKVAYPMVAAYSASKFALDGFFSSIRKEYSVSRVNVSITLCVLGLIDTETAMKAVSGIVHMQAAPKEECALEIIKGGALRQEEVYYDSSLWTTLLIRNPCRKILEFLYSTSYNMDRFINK

In the case of `O=C(CS(=O)(=O)c1ccccn1)C1(c2ccc(Cl)cc2)CC1` [Example 6, 1-[1-(4-Chloro-phenyl)-cyclopropyl]-2-(pyridine-2-sulfonyl)-ethanone], the inhibition at 1 µM was under 20%.

`O=C(CS(=O)(=O)c1ccccn1)C1(c2ccc(Cl)cc2)CCCCC1` [Example 48, 1-[1-(4-Chloro-phenyl)-cyclohexyl]-2-(pyridine-2-sulfonyl)-ethanone] showed an inhibition at 1 µM of 20 to 60%.

In the case of `O=C(CSc1ccccn1)C1(c2ccc(Cl)cc2)CCCCC1` [Example 47, 1-[1-(4-Chloro-phenyl)-cyclohexyl]-2-(pyridin-2-ylsulfanyl)-ethanone], the inhibition at 1 µM was 20 to 60%.

Work on `O=C(COCc1ccc(C(F)(F)F)nc1)C12CC3CC(CC(C3)C1)C2` [Example 56, 1-Adamantan-1-yl-2-(6-trifluoromethyl-pyridin-3-ylmethoxy)-ethanone] yielded an inhibition at 1 µM of 20 to 60%.

`Cn1ccnc1SCC(=O)C(C)(C)c1ccc(Cl)cc1` [Example 52, 3-(4-Chloro-phenyl)-3-methyl-1-(1-methyl-1H-imidazol-2-ylsulfanyl)-butan-2-one] was tested, and the inhibition at 1 µM was over 60%.

`O=C(COc1cncc(Cl)c1)C12CC3CC(CC(C3)C1)C2` [Example 57, 1-Adamantan-1-yl-2-(5-chloro-pyridin-3-yloxy)-ethanone] showed an inhibition at 1 µM of 20 to 60%.

`Cn1ccnc1SCC(=O)C1(c2ccc(Cl)cc2)CCCC1` [Example 41, 1-[1-(4-Chloro-phenyl)-cyclopentyl]-2-(1-methyl-1H-imidazol-2-ylsulfanyl)-ethanone] showed an inhibition at 1 µM of 20 to 60%.

For `Cn1ccnc1[S+]([O-])CC(=O)C1(c2ccc(Cl)cc2)CCC1` (stereo not shown) [Example 25, 1-[1-(4-Chloro-phenyl)-cyclobutyl]-2-(1-methyl-1H-imidazole-2-sulfinyl)-ethanone], the inhibition at 1 µM was under 20%.

With `O=C(CSc1ccccn1)C1(c2ccc(Cl)cc2)CC1` [Example 4, 1-[1-(4-Chloro-phenyl)-cyclopropyl]-2-(pyridin-2-ylsulfanyl)-ethanone] the inhibition at 1 µM was under 20%.

`O=C(COc1cccc(Cl)n1)C12CC3CC(CC(C3)C1)C2` [Example 58, 1-Adamantan-1-yl-2-(6-chloro-pyridin-2-yloxy)-ethanone] showed an inhibition at 1 µM of 20 to 60%.

In the case of `Cc1ccc(OCC(=O)C(C)(C)c2ccc(Cl)cc2)cn1` [Example 71, 3-(4-Chloro-phenyl)-3-methyl-1-(6-methyl-pyridin-3-yloxy)-butan-2-one], the inhibition at 1 µM was over 60%.

With `Cc1nnc([S+]([O-])CC(=O)C23CC4CC(CC(C4)C2)C3)s1` (stereo not shown) [Example 80, 1-Adamantan-1-yl-2-(5-methyl-[1,3,4]thiadiazole-2-sulfinyl)-ethanone] the inhibition at 1 µM was over 60%.

Compound `Cc1cc(C)c(C(=O)C[S+]([O-])c2ccccn2)c(C)c1` (stereo not shown) [Example 82, 1-mesityl-2-(pyridin-2-ylsulfinyl)ethanone] has an inhibition at 1 µM of under 20%.

`COc1ccncc1COCC(=O)C12CC3CC(CC(C3)C1)C2` [Example 85, 2-((4-methoxypyridin-3-yl)methoxy)-1-adamantylethanone] gave an inhibition at 1 µM of over 60%.

`Cn1cnnc1SCC(=O)C(C)(C)c1ccc(Cl)cc1` [Example 99, 3-(4-Chlorophenyl)-3-methyl-1-(4-methyl-4H-1,2,4-triazol-3-ylthio)butan-2-one] gave an inhibition at 1 µM of 20 to 60%.

For `O=C(CSc1ccccn1)C1(c2ccc(Cl)cc2)CCC1` [Example 20, 1-[1-(4-Chloro-phenyl)-cyclobutyl]-2-(pyridin-2-ylsulfanyl)-ethanone], the inhibition at 1 µM was 20 to 60%.

`O=C(COc1ccc(C(F)(F)F)cn1)C12CC3CC(CC(C3)C1)C2` [Example 55, 1-Adamantan-1-yl-2-(5-trifluoromethyl-pyridin-2-yloxy)-ethanone] gave an inhibition at 1 µM of 20 to 60%.

Work on `Cn1ccnc1[S+]([O-])CC(=O)C1(c2ccc(Cl)cc2)CC1` (stereo not shown) [Example 2, 1-[1-(4-Chloro-phenyl)-cyclopropyl]-2-(1-methyl-1H-imidazole-2-sulfinyl)-ethanone] yielded an inhibition at 1 µM of under 20%.

In the case of `Cc1cc(C)c(C(=O)CSc2nccn2C)c(C)c1` [Example 74, 2-(1-Methyl-1H-imidazol-2-ylsulfanyl)-1-(2,4,6-trimethyl-phenyl)-ethanone], the inhibition at 1 µM was under 20%.
